According to publication PMC5639602, “Role of microglial amylin receptors in mediating beta amyloid (Aβ)-induced inflammation” (Journal of Neuroinflammation, 2017):
“Also recorded” adds a separate entry of the source. Ends that are not written are not given here.

How the values were obtained:
[1] = system: human fetal microglia (HFM); amylin receptor; test: Intracellular Ca2+ imaging (Fluo-8L-AM, confocal) in human fetal microglia; format: cell-based; conditions: 1 μM
Procedure: Two different types of microglial, primary cultures of human fetal microglia and mouse microglial BV2 cell line, were used for in vitro testing of amylin receptor function. […] Primary mixed glial cultures were prepared from 12- to 15-gestational-week fetuses as previously reported [21, 22]. Briefly, the meninges and blood vessels were removed and the brain tissue was washed in minimum essential medium and mechanically dissociated by repeated trituration through a 20-gauge needle. Cells were centrifuged at 1500g for 10 min and re-suspended in minimum essential medium with 10% fetal bovine serum. The cultures were grown in a 5% CO2 humidified incubator at 37 °C. After mixed glial cultures were completely confluent, human fetal microglia (HFM) were isolated by shaking flasks at 100 rpm (IKA KS-260, IKA Works, Wilmington, NC) for 1 h at 37 °C. The media was then collected and centrifuged at 2500 RCF for 5 min at 4 °C. Cell pellets were re-suspended in microglia plating media (MEM + 10% FBS + 1% penicillin/streptomycin). HFM were plated at a 2 × 10^5 cells per milliliter density, and microglia were allowed to attach overnight before further use for experiments. […] For all in vitro experiments, primary human fetal microglial cultures and BV2 cell cultures, each experiment was performed on a fresh batch of cell cultures and repeated a minimum of four times. Statistical analysis was performed on mean data.
Ca^2+ concentration were monitored with confocal microscopy as described previously [23, 24]. Briefly, HFMs were plated on glass coverslips pre-coated with poly-L-ornithine and incubated at 37 °C for 12–36 h. Then, incubated with 5 μM of membrane-permeant fluorescent Ca^2+-sensitive dye Fluo-8L-AM (AAT Bioquest, Inc., Sunnyvale, CA) for 40 min at room temperature (20–23 °C) within < 2 h before imaging. For Ca^2+ imaging, the superfusate of ion content similar to extracellular brain fluid thus contain the following: 130 mM NaCl, 4 mM KCl, 1 mM MgCl2, 2 mM CaCl2, 10 mM HEPES, and 10 mM glucose (pH 7.35) was applied at a rate of 3 ml/min using a roller pump (Watson-Marlow Alitea, Sin-Can, Calgary, AB, Canada). […] Fluorescence intensity was monitored with a FV-300 laser-scanning confocal microscope (Olympus FV300, Markham, Ontario, Canada) equipped with an argon laser (488 nm) and excitation/emission filters (FF02-520/28-25; Semrock, Inc.) for an emission wavelength at 514 nm, measured with a numerical aperture of 0.95 20× XLUMPlanF1 objective (Olympus). Images were acquired at scan rates of 1.25–1.43 per second using a 2–3× digital zoom at full-frame (512 × 512 pixel) resolution. Regions of interest were drawn around distinct cell bodies, and analysis of time courses of change in fluorescence intensity were generated with FluoView software (version 4.3; Olympus). […]

[2] = system: NLRP3 in human fetal microglial (HFM) cultures; test: NLRP3 immunostaining in human fetal microglia; format: cell-based; conditions: vs basal
Procedure: Two different types of microglial, primary cultures of human fetal microglia and mouse microglial BV2 cell line, were used for in vitro testing of amylin receptor function. This approach provided confirmation of the presence of microglial amylin receptors across species and cross-validated our observations on the function of amylin receptors in both primary cell cultures and a frequently used cell line. Primary mixed glial cultures were prepared from 12- to 15-gestational-week fetuses as previously reported. Briefly, the meninges and blood vessels were removed and the brain tissue was washed in minimum essential medium and mechanically dissociated by repeated trituration through a 20-gauge needle. Cells were centrifuged at 1500g for 10 min and re-suspended in minimum essential medium with 10% fetal bovine serum. The cultures were grown in a 5% CO2 humidified incubator at 37 °C. After mixed glial cultures were completely confluent, human fetal microglia (HFM) were isolated by shaking flasks at 100 rpm (IKA KS-260, IKA Works, Wilmington, NC) for 1 h at 37 °C. The media was then collected and centrifuged at 2500 RCF for 5 min at 4 °C. Cell pellets were re-suspended in microglia plating media (MEM + 10% FBS + 1% penicillin/streptomycin). HFM were plated at a 2 × 10^5 cells per milliliter density, and microglia were allowed to attach overnight before further use for experiments. BV2 cells (kindly provided by Dr. T. Trang, University of Calgary) were cultured in DMEM/F12 media with 10% FBS. For all in vitro experiments, primary human fetal microglial cultures and BV2 cell cultures, each experiment was performed on a fresh batch of cell cultures and repeated a minimum of four times. […]
(§1) For cultured cell immunofluorescent staining, cells were plated on Lab-TEK chamber slide (ThermoFisher) and fixed with 4% paraformaldehyde (PAF) in PBS, then permeabilized with 0.3% Triton X-100 in PBS and blocked with 2% BSA + 10% goat serum for 1 h. […] Fluorescent microscopy images were acquired with an Axioplan-2 fluorescence microscope with AxioVision software (Carl Zeiss Ltd., Toronto, ON, Canada).

[3] = system: caspase-1 in HFM; test: Caspase-1 expression, fluorometric assay, human fetal microglia; format: cell-based
Procedure: (§2) Two different types of microglial, primary cultures of human fetal microglia and mouse microglial BV2 cell line, were used for in vitro testing of amylin receptor function. This approach provided confirmation of the presence of microglial amylin receptors across species and cross-validated our observations on the function of amylin receptors in both primary cell cultures and a frequently used cell line. Primary mixed glial cultures were prepared from 12- to 15-gestational-week fetuses as previously reported. Briefly, the meninges and blood vessels were removed and the brain tissue was washed in minimum essential medium and mechanically dissociated by repeated trituration through a 20-gauge needle. Cells were centrifuged at 1500g for 10 min and re-suspended in minimum essential medium with 10% fetal bovine serum. The cultures were grown in a 5% CO2 humidified incubator at 37 °C. […]
as §1

[4] = system: caspase-1 in BV2 cells; test: Caspase-1 expression in BV2 cells; format: cell-based, mouse
Procedure: as §2, §1

[5] = system: cytokine gene expression in HFM; test: Cytokine RT-PCR array in human fetal microglia; format: cell-based; conditions: 1 μM, 6 h, vs untreated
Procedure: The PCR array for TNFα, IL1β, and IL23 gene expression used the RT^2 Profiler PCR Array system (96-well assay plate, SABiosciences) following product instruction. […] RNA was isolated with Rneasy Mini kit (Qiagen) as per the product instructions. For each PCR Array, 4 μg of total RNA were used to prepare cDNA with the appropriate first strand kit from SABiosciences. The cDNA was characterized on the iCycler® iQ Real-Time PCR System (Bio-Rad Laboratories) using the RT2 Profiler PCR Arrays. The resulting raw data were then analyzed using the PCR Array Data Analysis Template and expressed as gene expression fold-change after treatment compared to the control untreated HFM cultures.

[6] = system: BV2 cells; test: Aβ uptake and plaque-like structure formation in BV2 cells (thioflavin S); format: cell-based, mouse; conditions: BV2, 1 μM, 24 h, thioflavin S staining
Procedure: as §2, §1

[7] = system: AMY3 receptor subtype; conditions: ref [23]; cited from earlier work
Excerpt: (§3) As a neuroendocrine hormone, amylin mediates glycemic regulation, energy balance control, and cognitive/motivational processes. Human amylin also modulates autoimmunity and innate inflammation through regulatory T cells. Amyloid precursor protein (APP) and Aβ interact with variety of G-protein-coupled receptors (GPCRs) including amylin receptors. Amylin receptors (AMYs) are a dimerized calcitonin receptor (CTR) with receptor activity-modifying proteins (RAMPs) and belong to class B GPCRs. We have previously shown that hAmylin and Aβ preferentially activate AMY3 recep ...

[8] = system: hippocampal long-term potentiation; conditions: ref [20], [39]; cited from earlier work
Excerpt: as §3

[9] = system: AMY3; test: cAMP in-cell Western, AMY3-expressing HEK293 cells; format: cell-based; conditions: 5 min
Excerpt: (§4) In order to characterize the antagonist activity of cAC253 at subtypes of amylin receptors, we compared hAmylin-generated cAMP responses in stably expressed AMY1, AMY2, and AMY3 and CTR receptors in HEK293 cells and wild-type HEK (HEK-WT) cells (Additional file 1).
(§5) For in-cell Western blot cyclic adenosine monophosphate (cAMP) quantification, mouse monoclonal anti-cAMP (R&D Systems) was used as a primary antibody and IRDye 700 goat anti mouse antibody (LI-COR) was used as a secondary antibody. Plates were imaged using an Odyssey Infrared Imaging System (LI-COR), and the integrated intensity was normalized to the total cell number on the same well as previously described.
(§6) Amylin receptor subtypes stably expressed in human embryonic kidney (HEK293) cell-line were generated and characterized as described in a previous published article from our laboratory ( Fu et al., J. Biol. Chem. 2012). […]
(§7) The in-cell Western blot cyclic adenosinemonophosphate (cAMP) quantification was used as previously described (Fu et al., J Biol Chem. 2012). […] The cAMP was measured at 5 min after treatment, i.e., at 5 min after different concentration of hAmylin and/or cAC253 treatment, cells were fixed with 4% paraformaldehyde in PBS for 10 min. […] Plates were imaged using an Odyssey Infrared Imaging System (LI-COR), and the integrated intensity was measured. […]

[10] = system: AMY1; test: cAMP in-cell Western, AMY1-expressing HEK293 cells; format: cell-based; conditions: 5 min
Excerpt: as §4, §5, §6, §7

[11] = system: AMY2; test: cAMP in-cell Western, AMY2-expressing HEK293 cells; format: cell-based; conditions: 5 min
Excerpt: as §4, §5, §6, §7

[12] = system: CTR; test: cAMP in-cell Western, CTR-expressing HEK293 cells; format: cell-based; conditions: 5 min
Excerpt: as §4, §5, §6, §7

[13] = system: HEK wild-type control cells; test: cAMP in-cell Western, wild-type HEK cells; format: cell-based, human; conditions: 5 min
Excerpt: as §4, §5
The in-cell Western blot cyclic adenosinemonophosphate (cAMP) quantification was used as previously described (Fu et al., J Biol Chem. 2012). Briefly, amylin receptor stable cells were plated at a density of 4x10^4 cells/well in a 96-well plate and cultured for 24 hours. On the day of experiment, culture media was replaced with serum free DMEM medium and further incubate for 6 h before treatment. The cAMP was measured at 5 min after treatment, i.e., at 5 min after different concentration of hAmylin and/or cAC253 treatment, cells were fixed with 4% paraformaldehyde in PBS for 10 min. […] Plates were imaged using an Odyssey Infrared Imaging System (LI-COR), and the integrated intensity was measured. […]

[14] = system: transgenic AD mice; conditions: systemic administration, ref [40], [41]; cited from earlier work
Excerpt: as §3

Substance | Time to Ca2+ increase after entry of the peptide into the imaging chamber ([1]; 30 s application) [min] | NLRP3 level [2] | NLRP3 level ([2]; listed as Aβ) | Caspase-1 expression [3] | Caspase-1 expression [4] | IL1β gene expression [5] | TNFα gene expression [5] | Uptake of Aβ1–42 and formation of plaque-like structures [6] | Activation of AMY3 receptor subtype with downstream MAPK and Akt signaling [7] | Effect on hippocampal long-term potentiation [8] | Time of return of Ca2+ to base line ([1]; 30 s application) [min] | Intracellular Ca2+ change ([1]; bath application 30 s, Fluo-8, pooled n = 123 HFM in 12 culture wells, four batches) | Receptor activation (cAMP) [9] | Receptor activation (cAMP) [10] | Receptor activation (cAMP) [11] | Receptor activation (cAMP) [12] | cAMP response [13] | Effect on hAmylin- and Aβ-induced depression of hippocampal long-term potentiation [8] | Amyloid burden in the brain [14] | Efflux of Aβ across the blood brain barrier [14]
Aβ1–42: soluble oligomeric amyloid beta 1–42 peptide from rPeptide | ≤ 1 | Increased activation of the inflammasome, NLRP3 | increased significantly | increased | increased | increases | increases | uptake of the peptide into the microglia and formation of plaque-like structures on the cell surface; also recorded: taken up into the cells and formed plaque-like structures | preferentially activate AMY3 receptor subtype | depression of hippocampal long-term potentiation | – | – | – | – | – | – | – | – | – | –
hAmylin: human amylin, the endogenous peptide that binds to the amylin receptor; purchased from American Peptide (KCNTATCATQRLANFLVHSSNNFGAILSSTNVGSNTY; not fully specified (C-terminus, bridges); cysteine pairing not given here; UniProt P10997 34-70, looked up) | ≤ 1 | increased significantly; also recorded: Increased activation of the inflammasome, NLRP3 | – | increased | increased | increases | increases | – | preferentially activate AMY3 receptor subtype | depression of hippocampal long-term potentiation | ≤ 2 | robust Ca^2+ increase | activated | activated | not significantly | not significantly | not significantly | – | – | –
pramlintide | – | – | – | – | – | – | – | – | – | – | – | – | – | – | – | – | – | attenuate | reduce amyloid burden in the brain | promoting an efflux of Aβ across the blood brain barrier
